Values quoted from earlier work in patent US20030157036A1, “Topical dapsone for the treatment of acne” (priority 2002, published 2003).

Test system: P. acnes

Nc1ccc(S(=O)(=O)c2ccc(N)cc2)cc1 [Dapsone, bis(4-aminophenyl)sulfone]
minimum inhibitory concentration: about 1 microgram per milliliter
